Entries after “also recorded” stand apart in the source; their conditions may differ.
Tested on: primary rat dopaminergic neurons (TH positive neurons) injured with 6-OHDA
Assay: Neuroprotective effect following exposure to 6-OHDA, with or without pathway inhibitors
Type: cell-based
Method: This study investigated the mode of action of CR777 on rat primary mesencephalic cultures following exposure to 6-OHDA. The effect of CR777 on level of GDNF and BDNF mRNA was investigated after 24 h 6-OHDA incubation and CR777. The main pathways of survival, regulation of the apoptosis and neuronal growth were investigated in presence of CR777 and inhibitors of these different pathways. The following pathways were investigated using antagonists of different proteins of interest: • RAS (small GTPase)/RAF (proto-oncogene Serine/threonine kinase); • Peroxisome proliferator-activated receptor gamma (PPAR-γ) (nuclear receptor) • The Pi3K/AKT/mTor (cell signaling pathway that plays a key role in cellular homeostasis through its role in regulation of apoptosis, cell growth, cell cycle). • NO (nitric oxide) pathway
Rat dopaminergic neurons were cultured as described in Example 4.
On day 6 of culture, the medium was removed and fresh medium was added, without or with 6-OHDA (Sigma, Batch: 083M4624V) at 20 μM diluted in control medium and let for 48 h. In parallel, all inhibitors were solved in culture medium and were added 2 h before the 6-OHDA application (namely 1 h before test compounds application).
CR777 was solved in DMSO at 10 mM, diluted in culture medium and then pre-incubated with mesencephalic neurons 1 hour before the 6-OHDA application (48 h). 6 wells per condition were assessed.
For survival and α-syn aggregation, compound was tested on 1 culture in a 96 well-plate (6 wells per condition), was pre-incubated 1 hour before 6-OHDA and let for 48 hours.
The following conditions were assessed: • Control (culture medium) • +6-OHDA (20 μM, 48 h) • +6-OHDA (20 μM, 48 h)+CR777 1 μM • +6-OHDA (20 μM, 48 h)+CR777 100 nM • +6-OHDA (20 μM, 48 h)+CR777 10 nM • +6-OHDA (20 μM, 48 h)+CR777 1 nM
For pathway investigation, the compound was tested on one primary dopaminergic culture in 96 well plates (6 wells per conditions).
Inhibitors were pre-incubated for 2 hours before 6-OHDA application and CR777 was pre-incubated 1 hour before 6-OHDA application.
The antagonists/inhibitors used in the experiments are the following: • FTS: farnesylthiosalicylic acid selectively disrupts the association of chronically active Ras proteins with the plasma membrane. • BEZ-235: dual PI3K/mTOR inhibitor. • T0070907: selective PPAR-γ antagonist • L-NAME (Nitro-L-arginine methyl ester): precursor to NOS inhibitor, L-NNA—requires bioactivation to become a fully functional inhibitor. • ABT-199: selective inhibitor of Bcl-2.
48 hours after intoxication, the cell culture supernatant was taken off and the dopaminergic neurons were fixed by a solution of 4% paraformaldehyde in PBS, pH=7.3 for 20 min at room temperature.
After permeabilization with 0.1% of saponin, cells were incubated for 2 hours with:
monoclonal Anti-Tyrosine Hydroxylase (TH) antibody produced in mouse at dilution of 1/10000 in PBS containing 1% FCS, 0.1% saponin,
polyclonal anti-α-syn antibody produced in rabbit at dilution of 1/200 for 2 h at room temperature.
For each condition, 20 pictures/well (representative of ˜the all well area) were automatically taken using ImageXpress (Molecular Devices) with 10× magnification. All images were taken with the same conditions. Analysis were automatically performed by using Custom Module Editor (Molecular Devices).
The following endpoint was investigated for each culture well: • The total dopaminergic neuron survival (TH staining), • The total area of α-syn on TH positive neuron (overlapping α-syn/TH)
After permeabilization with 0.1% of saponin, cells were incubated for 2 hours with monoclonal Anti-Tyrosine Hydroxylase (TH) antibody produced in mouse at dilution of 1/10000 in PBS containing 1% FCS, 0.1% saponin, for 2 h at room temperature.
The total dopaminergic neuron survival (TH staining) was investigated for each culture well.

## CC1=C(CO)C(=O)O[C@@H]([C@@H](C)[C@H]2CCC3C4C[C@H](SC[C@H](NC(=O)CC[C@@H](N)C(=O)O)C(=O)NCC(=O)O)[C@]5(O)[C@@H](O)C=CC(=O)[C@]5(C)C4CC[C@@]32C)C1 (some centres unmarked) [CR777]
CR777 10 nM + ABT 199 (5 μM), 6-OHDA 20 μM
  neuroprotective effect (TH neuron survival) in presence of Bcl2 pathway inhibitor: did not induce any changes
CR777 10 nM + BEZ235 (40 nM), 6-OHDA 20 μM
  neuroprotective effect (TH neuron survival) in presence of PI3K/AKT/mTOR pathway inhibitor: fully abolished
CR777 10 nM + FTS (4 μM), 6-OHDA 20 μM
  neuroprotective effect (TH neuron survival) in presence of Ras/Raf pathway inhibitor: did not induce any changes
CR777 10 nM + L-NAME (100 μM), 6-OHDA 20 μM
  neuroprotective effect (TH neuron survival) in presence of nNOS pathway inhibitor: did not induce any changes
CR777 10 nM + T0070907 (1 μM), 6-OHDA 20 μM
  neuroprotective effect (TH neuron survival) in presence of PPARγ pathway inhibitor: no effect was observed
CR777 10 nM added 1 h before 6-OHDA (20 μM, 48 h), bell shape curve
  TH positive neuron survival: significantly protected neurons from death; also recorded: significant protective effect; also recorded: able to protect TH positive neurons
CR777 10 and 100 nM, 6-OHDA 20 μM, 48 h
  α-syn aggregation in TH positive neurons: able to reduce the aggregation; also recorded: partially protected
All concentrations tested (1 nM to 1 μM), 6-OHDA 20 μM, 48 h
  dopaminergic neurite network: significant protective effect
